Laboratory results reported in ChEMBL document CHEMBL1149655, “Non-steroidal glucocorticoid agonists: the discovery of aryl pyrazoles as A-ring mimetics” (Bioorg Med Chem Lett, 2007).
“And” between values parts separate entries of the source, which are not always exact repeats. Identical values can stand only once.

Key:
Glucocorticoid receptor [1] = molecular target: T1, Glucocorticoid receptor (Homo sapiens, UniProt P04150); experiment: Agonist activity at glucocorticoid receptor in human A549 cells by MMTV transactivation assay; assay type: functional, cell-based
T1 sequence (P04150 whole entry): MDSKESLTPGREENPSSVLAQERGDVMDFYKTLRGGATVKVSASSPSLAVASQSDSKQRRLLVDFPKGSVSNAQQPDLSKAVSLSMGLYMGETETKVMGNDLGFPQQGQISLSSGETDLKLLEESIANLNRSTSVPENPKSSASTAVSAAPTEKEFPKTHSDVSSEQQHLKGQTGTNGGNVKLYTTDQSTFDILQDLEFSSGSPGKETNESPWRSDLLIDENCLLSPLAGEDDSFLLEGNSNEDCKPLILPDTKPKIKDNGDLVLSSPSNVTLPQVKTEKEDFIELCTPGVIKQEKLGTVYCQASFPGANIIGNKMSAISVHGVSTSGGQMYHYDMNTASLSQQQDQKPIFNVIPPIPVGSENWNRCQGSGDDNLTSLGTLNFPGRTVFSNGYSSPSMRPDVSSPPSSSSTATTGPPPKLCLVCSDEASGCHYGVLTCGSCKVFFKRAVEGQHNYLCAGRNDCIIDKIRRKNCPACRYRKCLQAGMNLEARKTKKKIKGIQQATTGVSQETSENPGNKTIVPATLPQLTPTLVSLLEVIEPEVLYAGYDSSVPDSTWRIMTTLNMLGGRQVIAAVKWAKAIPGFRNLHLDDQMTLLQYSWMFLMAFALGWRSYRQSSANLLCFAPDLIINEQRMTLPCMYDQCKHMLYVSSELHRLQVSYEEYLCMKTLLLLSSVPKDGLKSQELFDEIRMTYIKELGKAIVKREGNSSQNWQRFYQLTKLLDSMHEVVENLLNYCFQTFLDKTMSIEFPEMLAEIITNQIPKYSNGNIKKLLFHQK

Glucocorticoid receptor [2] = molecular target: T1, Glucocorticoid receptor
Description: (§1) Binding affinity to glucocorticoid receptor

Glucocorticoid receptor [3] = molecular target: T1, Glucocorticoid receptor; remark: listed apart in the source
Description: Agonist activity at glucocorticoid receptor in human A549 cells by NF-kappaB transrepression assay

Glucocorticoid receptor [4] = molecular target: T1, Glucocorticoid receptor; remark: listed apart in the source
Progesterone receptor = molecular target: T2, Progesterone receptor (Homo sapiens, UniProt P06401); experiment: Binding affinity to progesterone receptor
T2 sequence (P06401 whole entry): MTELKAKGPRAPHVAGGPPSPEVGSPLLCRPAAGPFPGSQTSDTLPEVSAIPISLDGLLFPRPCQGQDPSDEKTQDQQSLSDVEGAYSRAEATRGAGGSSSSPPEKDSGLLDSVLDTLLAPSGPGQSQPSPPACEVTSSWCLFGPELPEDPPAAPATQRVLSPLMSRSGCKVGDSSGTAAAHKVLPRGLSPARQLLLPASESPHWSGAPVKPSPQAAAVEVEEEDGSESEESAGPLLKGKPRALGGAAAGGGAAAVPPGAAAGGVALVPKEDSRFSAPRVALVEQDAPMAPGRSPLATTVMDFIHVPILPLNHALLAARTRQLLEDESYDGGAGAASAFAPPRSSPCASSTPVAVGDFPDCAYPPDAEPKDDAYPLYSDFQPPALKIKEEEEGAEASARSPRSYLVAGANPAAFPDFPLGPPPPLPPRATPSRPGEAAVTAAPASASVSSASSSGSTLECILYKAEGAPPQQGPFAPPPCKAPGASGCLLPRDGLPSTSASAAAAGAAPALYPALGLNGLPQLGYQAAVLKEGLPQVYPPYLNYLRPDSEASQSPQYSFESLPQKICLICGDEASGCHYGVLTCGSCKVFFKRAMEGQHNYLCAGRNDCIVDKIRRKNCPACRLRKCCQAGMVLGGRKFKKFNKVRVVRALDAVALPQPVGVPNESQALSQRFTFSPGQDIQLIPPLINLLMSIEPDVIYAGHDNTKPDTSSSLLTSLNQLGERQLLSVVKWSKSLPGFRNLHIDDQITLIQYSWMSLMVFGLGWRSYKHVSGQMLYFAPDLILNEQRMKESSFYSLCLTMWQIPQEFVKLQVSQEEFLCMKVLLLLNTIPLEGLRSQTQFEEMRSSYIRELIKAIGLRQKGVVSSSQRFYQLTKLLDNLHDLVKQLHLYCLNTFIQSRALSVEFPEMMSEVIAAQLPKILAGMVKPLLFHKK

Androgen receptor = molecular target: T3, Androgen receptor (Homo sapiens, UniProt P10275); experiment: Binding affinity to androgen receptor
T3 sequence (P10275 whole entry): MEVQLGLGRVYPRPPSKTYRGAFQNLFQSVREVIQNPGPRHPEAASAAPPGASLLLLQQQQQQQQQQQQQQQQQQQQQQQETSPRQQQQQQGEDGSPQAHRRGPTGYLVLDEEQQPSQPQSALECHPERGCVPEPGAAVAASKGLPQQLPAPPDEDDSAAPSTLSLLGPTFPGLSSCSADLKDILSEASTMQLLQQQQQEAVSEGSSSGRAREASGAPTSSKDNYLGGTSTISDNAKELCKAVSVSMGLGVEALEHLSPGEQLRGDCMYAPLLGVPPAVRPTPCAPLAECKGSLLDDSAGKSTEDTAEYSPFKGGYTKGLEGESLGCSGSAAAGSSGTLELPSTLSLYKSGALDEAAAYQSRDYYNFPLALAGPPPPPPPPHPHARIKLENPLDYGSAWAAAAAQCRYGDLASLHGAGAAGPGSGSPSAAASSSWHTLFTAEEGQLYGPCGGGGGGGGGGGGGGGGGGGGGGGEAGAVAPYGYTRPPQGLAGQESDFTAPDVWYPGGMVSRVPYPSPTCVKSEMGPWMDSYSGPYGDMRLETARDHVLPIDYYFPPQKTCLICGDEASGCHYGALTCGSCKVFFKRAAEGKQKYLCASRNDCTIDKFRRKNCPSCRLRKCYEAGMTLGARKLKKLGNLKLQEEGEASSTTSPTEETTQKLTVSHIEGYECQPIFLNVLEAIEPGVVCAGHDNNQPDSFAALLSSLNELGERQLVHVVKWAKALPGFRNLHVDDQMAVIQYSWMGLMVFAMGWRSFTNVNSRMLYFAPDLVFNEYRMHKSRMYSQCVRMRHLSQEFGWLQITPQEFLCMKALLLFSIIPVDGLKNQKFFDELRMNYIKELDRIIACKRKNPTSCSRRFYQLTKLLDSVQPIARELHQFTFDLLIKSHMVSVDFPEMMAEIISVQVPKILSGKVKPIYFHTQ

Glucocorticoid receptor [5] = molecular target: T1, Glucocorticoid receptor; remark: listed apart in the source
Description: as §1

SMILES | EC50 (Glucocorticoid receptor [1]) | IC50 (Glucocorticoid receptor [2]) | IC50 (Glucocorticoid receptor [3]) | IC50 (Glucocorticoid receptor [4]) | IC50 (Progesterone receptor) | IC50 (Androgen receptor) | Log IC50 (Glucocorticoid receptor [5])
CCC1(CC(O)(CNC(=O)c2cnn(-c3ccccc3)c2N)C(F)(F)F)CCCc2ccccc21 (configuration not stated) | 5.62 nM | 7.41 nM | 1.66 nM | – | – | – | –
Cc1c(S(=O)(=O)NCC(O)(CC2(C)CCCc3ccccc32)C(F)(F)F)cnn1-c1ccccc1 (stereo in doubt; 17D2E2) | > 1000 nM | 30.2 nM | > 1000 nM | 309 nM | – | – | –
Nc1c(C(=O)NCC(O)(CC2(C3CCCC3)CCCc3ccccc32)C(F)(F)F)cnn1-c1ccc(F)cc1F (stereo in doubt; 23D1E2) | 151 nM | 20.9 nM | 30.2 nM | – | – | – | –
Cc1c(S(=O)(=O)NCC(O)(CC2(C)CCCc3ccccc32)C(F)(F)F)cnn1-c1ccccc1 (stereo in doubt; 17D2) | – | 34.7 nM | – | – | – | – | –
CCC1(CC(O)(CNC(=O)c2cnn(-c3ccc(F)cc3)c2N)C(F)(F)F)CCCc2ccccc21 (stereo in doubt; 21D1E1) | 7.76 nM | 20 nM | 3.63 nM | – | – | – | –
CCn1nc(C)c(Br)c1C(=O)NCC(O)(CC1(C)CCCc2ccccc21)C(F)(F)F (configuration not stated) | – | 40.7 nM | > 1000 nM | – | – | – | –
Cc1c(C(=O)NCC(O)(CC2(C)CCCc3ccccc32)C(F)(F)F)cnn1-c1ccccc1 (stereo in doubt; 18D1E1) | > 1000 nM | 9.33 nM | 49 nM | 933 nM | – | – | –
Nc1c(C(=O)NCC(O)(CC2(c3cc(F)ccc3Cl)CCC2)C(F)(F)F)cnn1-c1ccccc1 (stereo in doubt; 24E2) | 17.4 nM | 4.79 nM | 13.2 nM | – | – | – | –
COc1ccc(F)cc1C(C)(C)C[C@](O)(CNC(=O)c1cnn(-c2ccc(F)cc2)c1N)C(F)(F)F | – | 6.76 nM and 5.5 nM | – | > 1000 nM | > 1000 nM | > 1000 nM | –
Nc1c(C(=O)NCC(O)(CC2(C3CCCC3)CCCc3ccccc32)C(F)(F)F)cnn1-c1ccc(F)cc1F (stereo in doubt; 23D1E1) | 95.5 nM | 9.55 nM | 8.51 nM | 275 nM | – | – | –
CC1(CC(O)(CNC(=O)c2cnn(-c3ccccc3)c2N)C(F)(F)F)CCCc2ccccc21 (stereo in doubt; 19D1E2) | 18.2 nM | 5.13 nM | 5.89 nM | – | – | – | –
Cc1c(S(=O)(=O)NCC(O)(CC2(C)CCCc3ccccc32)C(F)(F)F)cnn1-c1ccccc1 (stereo in doubt; 17D1) | – | 158 nM | – | – | – | – | –
CC1(CC(O)(CNC(=O)c2cnn(-c3ccccc3)c2N)C(F)(F)F)CCCc2ccccc21 (stereo in doubt; 19D1E1) | 182 nM | 5.75 nM | 17 nM | – | – | – | –
Nc1c(C(=O)NCC(O)(CC2(c3cc(F)ccc3Cl)CCC2)C(F)(F)F)cnn1-c1ccccc1 (stereo in doubt; 24E1) | 15.1 nM | 4.27 nM | 3.72 nM | – | > 1000 nM | > 1000 nM | –
CCC1(CC(O)(CNC(=O)c2cnn(-c3ccc(F)cc3F)c2N)C(F)(F)F)CCCc2ccccc21 (stereo in doubt; 22D1E2) | 12.3 nM | 4.68 nM | 4.47 nM | – | – | – | –
CCC1(CC(O)(CNC(=O)c2cnn(-c3ccc(F)cc3)c2N)C(F)(F)F)CCCc2ccccc21 (stereo in doubt; 21D1E2) | 10.7 nM | 9.77 nM | 3.02 nM | – | – | – | –
CCC1(CC(O)(CNC(=O)c2cnn(-c3ccc(F)cc3F)c2N)C(F)(F)F)CCCc2ccccc21 (stereo in doubt; 22D1E1) | 14.5 nM | – | 6.46 nM | > 1000 nM | – | – | -8.33
Cc1c(S(=O)(=O)NCC(O)(CC2(C)CCCc3ccccc32)C(F)(F)F)cnn1-c1ccccc1 (stereo in doubt; 17D2E1) | – | 51.3 nM | – | – | – | – | –
Cc1c(C(=O)NCC(O)(CC2(C)CCCc3ccccc32)C(F)(F)F)cnn1-c1ccccc1 (stereo in doubt; 18D1) | – | 7.59 nM | 83.2 nM | 603 nM | – | – | –
